Measurements: patent publication US20240279240A1, “HETEROCYCLIC DERIVATIVES AS JANUS KINASE INHIBITORS” (CHIESI FARMACEUTICI S.P.A., priority 2021, published 2024)

Legend:
JAK 1 = JAK 1 (Homo sapiens, UniProt P23458); assay: Biochemical potency on JAK1, TR-FRET LANCE Ultra kinase assay (examples 1-99); settings: ATP at Km (20 μM), read-out: JAK1 inhibitory activity (pIC50 class) (converted)
Outline: (§1)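 Inhibition of each JAK family kinase is measured as loss of phosphotyrosine signal on a ULight peptide, detected by Eu-PT66 antibody (final 0.5 nM) via time-resolved FRET. ATP sits near Km for each isoform. Dose–response spans 20 μM downward in 5-fold steps, 11 points.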

JAK 2 = JAK 2 (Homo sapiens, UniProt O60674); assay: Biochemical potency on JAK2, TR-FRET LANCE Ultra kinase assay (examples 1-99); settings: ATP at Km (0.7 μM), read-out: JAK2 inhibitory activity (pIC50 class) (converted)
Sequence of JAK 2 (O60674 whole entry): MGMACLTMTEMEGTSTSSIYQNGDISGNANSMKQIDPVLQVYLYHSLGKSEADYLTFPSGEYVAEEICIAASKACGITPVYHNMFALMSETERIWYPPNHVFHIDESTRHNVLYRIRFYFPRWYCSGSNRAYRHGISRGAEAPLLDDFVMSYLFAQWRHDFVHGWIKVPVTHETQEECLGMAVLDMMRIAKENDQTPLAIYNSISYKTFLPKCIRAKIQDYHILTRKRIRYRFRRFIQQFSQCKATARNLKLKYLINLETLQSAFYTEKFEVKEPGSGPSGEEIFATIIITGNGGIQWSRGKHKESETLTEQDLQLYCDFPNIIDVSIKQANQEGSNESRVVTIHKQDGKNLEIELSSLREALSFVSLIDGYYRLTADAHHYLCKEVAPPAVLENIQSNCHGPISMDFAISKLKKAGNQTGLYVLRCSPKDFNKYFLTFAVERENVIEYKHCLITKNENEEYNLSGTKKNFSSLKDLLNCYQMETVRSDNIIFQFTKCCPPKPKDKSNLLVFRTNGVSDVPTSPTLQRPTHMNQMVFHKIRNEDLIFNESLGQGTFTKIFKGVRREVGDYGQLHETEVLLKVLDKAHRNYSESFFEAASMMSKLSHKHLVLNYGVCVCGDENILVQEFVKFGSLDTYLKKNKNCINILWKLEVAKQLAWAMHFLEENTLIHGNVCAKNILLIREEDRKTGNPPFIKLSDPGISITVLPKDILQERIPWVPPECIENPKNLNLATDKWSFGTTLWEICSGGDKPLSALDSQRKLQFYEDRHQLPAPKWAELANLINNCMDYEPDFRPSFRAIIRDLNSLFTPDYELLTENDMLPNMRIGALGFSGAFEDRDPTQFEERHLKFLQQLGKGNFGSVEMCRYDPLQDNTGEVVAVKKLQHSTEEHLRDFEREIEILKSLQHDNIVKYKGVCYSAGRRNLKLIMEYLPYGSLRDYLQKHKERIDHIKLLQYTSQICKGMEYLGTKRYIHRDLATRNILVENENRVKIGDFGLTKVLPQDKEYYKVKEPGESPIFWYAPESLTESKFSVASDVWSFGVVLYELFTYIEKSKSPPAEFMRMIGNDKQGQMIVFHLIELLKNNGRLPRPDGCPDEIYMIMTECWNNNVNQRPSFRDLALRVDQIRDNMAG
Outline: as §1

JAK 3 = biological target: T1, JAK 3 (Homo sapiens, UniProt P52333); assay: Biochemical potency on JAK3, TR-FRET LANCE Ultra kinase assay (examples 1-99); settings: ATP at Km (0.2 μM), read-out: JAK3 inhibitory activity (pIC50 class) (converted)
T1 sequence (P52333 1-1124): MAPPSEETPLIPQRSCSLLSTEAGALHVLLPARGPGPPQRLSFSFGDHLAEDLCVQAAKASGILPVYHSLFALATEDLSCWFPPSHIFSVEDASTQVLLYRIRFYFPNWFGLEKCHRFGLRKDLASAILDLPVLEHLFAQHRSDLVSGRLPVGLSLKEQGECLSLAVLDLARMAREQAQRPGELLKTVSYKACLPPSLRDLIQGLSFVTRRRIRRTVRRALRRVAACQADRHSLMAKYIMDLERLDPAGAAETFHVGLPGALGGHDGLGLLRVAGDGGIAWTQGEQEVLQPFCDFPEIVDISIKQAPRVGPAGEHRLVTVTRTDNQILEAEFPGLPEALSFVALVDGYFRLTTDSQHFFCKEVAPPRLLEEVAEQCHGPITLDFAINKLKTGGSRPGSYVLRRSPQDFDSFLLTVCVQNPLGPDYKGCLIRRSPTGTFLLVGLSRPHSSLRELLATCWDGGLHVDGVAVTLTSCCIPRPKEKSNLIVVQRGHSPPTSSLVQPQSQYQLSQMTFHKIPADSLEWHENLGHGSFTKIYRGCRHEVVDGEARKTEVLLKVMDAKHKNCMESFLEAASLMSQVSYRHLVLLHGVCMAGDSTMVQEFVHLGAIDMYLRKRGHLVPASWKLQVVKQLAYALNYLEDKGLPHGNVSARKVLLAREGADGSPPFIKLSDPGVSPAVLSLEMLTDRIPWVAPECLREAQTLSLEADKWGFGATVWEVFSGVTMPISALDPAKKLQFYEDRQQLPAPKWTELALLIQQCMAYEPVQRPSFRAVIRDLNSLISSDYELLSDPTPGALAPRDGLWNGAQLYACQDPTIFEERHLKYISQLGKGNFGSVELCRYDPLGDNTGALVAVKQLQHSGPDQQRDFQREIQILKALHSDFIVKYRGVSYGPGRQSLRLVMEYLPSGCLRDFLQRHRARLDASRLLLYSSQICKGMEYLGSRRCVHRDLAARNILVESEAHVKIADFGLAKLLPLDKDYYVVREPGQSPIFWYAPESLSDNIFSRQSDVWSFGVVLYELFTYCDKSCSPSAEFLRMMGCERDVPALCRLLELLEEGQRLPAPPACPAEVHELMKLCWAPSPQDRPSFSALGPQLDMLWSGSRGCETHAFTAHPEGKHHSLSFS
Outline: as §1

TYK2 = TYK2 (Homo sapiens, UniProt P29597); assay: Biochemical potency on Tyk2, TR-FRET LANCE Ultra kinase assay (examples 1-99); settings: ATP at Km (12 μM), read-out: Tyk2 inhibitory activity (pIC50 class) (converted)
Sequence of TYK2 (P29597 whole entry): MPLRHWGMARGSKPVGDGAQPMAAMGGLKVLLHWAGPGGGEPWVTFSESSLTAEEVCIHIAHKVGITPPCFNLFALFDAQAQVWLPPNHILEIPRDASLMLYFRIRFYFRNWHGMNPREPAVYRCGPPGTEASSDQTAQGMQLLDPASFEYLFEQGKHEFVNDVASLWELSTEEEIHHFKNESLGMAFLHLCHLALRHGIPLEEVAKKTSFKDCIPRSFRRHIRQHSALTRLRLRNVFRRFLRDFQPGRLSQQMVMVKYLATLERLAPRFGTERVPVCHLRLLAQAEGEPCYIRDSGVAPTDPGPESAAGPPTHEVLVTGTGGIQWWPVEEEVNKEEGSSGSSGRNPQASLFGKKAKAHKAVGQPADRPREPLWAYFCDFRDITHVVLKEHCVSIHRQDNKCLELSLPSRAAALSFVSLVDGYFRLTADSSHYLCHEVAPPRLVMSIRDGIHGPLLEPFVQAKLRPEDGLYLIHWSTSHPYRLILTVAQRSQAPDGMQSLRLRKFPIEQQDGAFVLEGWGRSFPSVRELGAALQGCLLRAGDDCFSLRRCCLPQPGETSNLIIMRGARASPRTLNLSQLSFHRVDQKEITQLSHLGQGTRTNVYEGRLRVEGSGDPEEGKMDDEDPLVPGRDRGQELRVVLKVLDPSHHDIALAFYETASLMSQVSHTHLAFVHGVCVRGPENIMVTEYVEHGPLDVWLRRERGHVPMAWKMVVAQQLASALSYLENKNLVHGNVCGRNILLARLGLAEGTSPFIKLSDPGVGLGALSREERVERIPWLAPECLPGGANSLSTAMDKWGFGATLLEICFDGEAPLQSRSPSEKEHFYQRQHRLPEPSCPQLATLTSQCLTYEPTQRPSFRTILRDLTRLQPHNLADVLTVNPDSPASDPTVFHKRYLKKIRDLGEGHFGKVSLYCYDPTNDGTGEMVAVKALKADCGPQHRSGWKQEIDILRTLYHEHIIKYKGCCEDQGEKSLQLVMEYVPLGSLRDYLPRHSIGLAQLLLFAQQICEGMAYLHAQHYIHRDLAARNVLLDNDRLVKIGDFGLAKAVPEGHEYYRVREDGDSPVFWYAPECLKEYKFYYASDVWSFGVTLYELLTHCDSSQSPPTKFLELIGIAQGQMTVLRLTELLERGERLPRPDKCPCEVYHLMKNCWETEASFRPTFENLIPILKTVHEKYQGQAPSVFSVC
Outline: as §1

Sequence of JAK 1 (P23458 whole entry, canonical isoform): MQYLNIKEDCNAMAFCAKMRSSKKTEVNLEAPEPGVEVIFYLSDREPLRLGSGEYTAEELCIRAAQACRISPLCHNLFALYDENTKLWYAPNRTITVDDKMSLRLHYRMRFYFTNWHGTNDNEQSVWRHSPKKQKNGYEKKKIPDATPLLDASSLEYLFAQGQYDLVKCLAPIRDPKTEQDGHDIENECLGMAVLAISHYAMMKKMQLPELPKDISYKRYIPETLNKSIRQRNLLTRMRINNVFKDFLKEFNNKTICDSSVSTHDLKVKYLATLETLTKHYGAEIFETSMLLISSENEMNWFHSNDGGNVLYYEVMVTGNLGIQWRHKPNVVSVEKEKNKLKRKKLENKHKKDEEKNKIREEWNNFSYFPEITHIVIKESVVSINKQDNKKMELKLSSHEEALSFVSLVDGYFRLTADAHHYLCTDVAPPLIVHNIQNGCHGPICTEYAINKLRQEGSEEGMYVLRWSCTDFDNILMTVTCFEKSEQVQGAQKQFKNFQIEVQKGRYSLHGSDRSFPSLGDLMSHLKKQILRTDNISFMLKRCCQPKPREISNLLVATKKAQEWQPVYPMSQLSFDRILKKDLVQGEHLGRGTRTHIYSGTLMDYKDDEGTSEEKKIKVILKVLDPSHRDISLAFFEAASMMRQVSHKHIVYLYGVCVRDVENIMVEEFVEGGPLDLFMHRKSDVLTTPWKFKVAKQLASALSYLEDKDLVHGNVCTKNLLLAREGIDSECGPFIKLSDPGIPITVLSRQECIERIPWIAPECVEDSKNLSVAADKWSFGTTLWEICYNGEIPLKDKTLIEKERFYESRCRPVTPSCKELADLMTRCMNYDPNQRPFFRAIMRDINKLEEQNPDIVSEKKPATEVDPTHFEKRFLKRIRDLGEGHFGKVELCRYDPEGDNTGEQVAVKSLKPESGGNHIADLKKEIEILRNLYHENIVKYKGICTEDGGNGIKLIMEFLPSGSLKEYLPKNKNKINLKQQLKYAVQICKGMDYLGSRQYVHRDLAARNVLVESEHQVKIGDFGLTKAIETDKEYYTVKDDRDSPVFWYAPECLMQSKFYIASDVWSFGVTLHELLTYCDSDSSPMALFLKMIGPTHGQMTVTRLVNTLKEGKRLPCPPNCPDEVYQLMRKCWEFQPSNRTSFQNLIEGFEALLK

## COc1ccc(Cl)cc1-n1nc(C)c2cnc(-c3cnn4cccnc34)cc21 [Example 2, 1-(5-chloro-2-methoxyphenyl)-3-methyl-6-(pyrazolo[1,5-a]pyrimidin-3-yl)-1H-pyrazolo[4,3-c]pyridine]
JAK 1
  IC50: ≤ 5.01 nM
JAK 2
  IC50: ≤ 5.01 nM
JAK 3
  IC50: 5.01 to 50.1 nM
TYK2
  IC50: 5.01 to 50.1 nM

## COc1ccc(S(C)(=O)=O)cc1-n1nc(C(=O)NCCN(C)C)c2cnc(-c3cnn4cccnc34)cc21 [Example 82, N-(2-(dimethylamino)ethyl)-1-(2-methoxy-5-(methylsulfonyl)phenyl)-6-(pyrazolo[1,5-a]pyrimidin-3-yl)-1H-pyrazolo[4,3-c]pyridine-3-carboxamide]
JAK 1
  IC50: 5.01 to 50.1 nM
JAK 2
  IC50: 5.01 to 50.1 nM
JAK 3
  IC50: 5.01 to 50.1 nM
TYK2
  IC50: > 50.1 nM

## COc1ccc(C(F)F)cc1-n1nc(C)c2cnc(-c3cnn4cccnc34)cc21 [Example 3, 1-(5-(difluoromethyl)-2-methoxyphenyl)-3-methyl-6-(pyrazolo[1,5-a]pyrimidin-3-yl)-1H-pyrazolo[4,3-c]pyridine]
JAK 1
  IC50: 5.01 to 50.1 nM
JAK 2
  IC50: ≤ 5.01 nM
JAK 3
  IC50: 5.01 to 50.1 nM
TYK2
  IC50: 5.01 to 50.1 nM

## COc1ccc(Cl)cc1-n1ncc2c(O)nc(-c3cnn4cccnc34)cc21 [Example 57, 1-(5-chloro-2-methoxyphenyl)-6-(pyrazolo[1,5-a]pyrimidin-3-yl)-1H-pyrazolo[4,3-c]pyridin-4-ol]
JAK 1
  IC50: 5.01 to 50.1 nM
JAK 2
  IC50: ≤ 5.01 nM
JAK 3
  IC50: 5.01 to 50.1 nM
TYK2
  IC50: 5.01 to 50.1 nM

## N[C@H]1C[C@@H](NC(=O)c2nn(-c3cc(Cl)ccc3OC(F)F)c3cc(-c4cnn5cccnc45)ncc23)C1 [Example 81, N-((1s,3s)-3-aminocyclobutyl)-1-(5-chloro-2-(difluoromethoxy)phenyl)-6-(pyrazolo[1,5-a]pyrimidin-3-yl)-1H-pyrazolo[4,3-c]pyridine-3-carboxamide]
JAK 1
  IC50: 5.01 to 50.1 nM
JAK 2
  IC50: > 50.1 nM
JAK 3
  IC50: 5.01 to 50.1 nM
TYK2
  IC50: > 50.1 nM

## CNC(=O)CNc1nc(-c2cnn3cccnc23)cc2c1cnn2-c1cc(Cl)ccc1OC [Example 54, 2-((1-(5-chloro-2-methoxyphenyl)-6-(pyrazolo[1,5-a]pyrimidin-3-yl)-1H-pyrazolo[4,3-c]pyridin-4-yl)amino)-N-methylacetamide]
JAK 1
  IC50: 5.01 to 50.1 nM
JAK 2
  IC50: 5.01 to 50.1 nM
JAK 3
  IC50: 5.01 to 50.1 nM
TYK2
  IC50: > 50.1 nM

## COc1ccc(Cl)cc1-n1nc(C(=O)N[C@H]2C[C@H](N)C2)c2cnc(-c3cnn4cccnc34)cc21 [Example 77, N-((1r,3r)-3-aminocyclobutyl)-1-(5-chloro-2-methoxyphenyl)-6-(pyrazolo[1,5-a]pyrimidin-3-yl)-1H-pyrazolo[4,3-c]pyridine-3-carboxamide]
JAK 1
  IC50: 5.01 to 50.1 nM
JAK 2
  IC50: 5.01 to 50.1 nM
JAK 3
  IC50: 5.01 to 50.1 nM
TYK2
  IC50: 5.01 to 50.1 nM

## CC(=O)N1CCC(Sc2ccc(OC(F)F)c(-n3nc(C)c4cnc(-c5cnn6cccnc56)cc43)c2)CC1 [Example 75, 1-(4-((4-(difluoromethoxy)-3-(3-methyl-6-(pyrazolo[1,5-a]pyrimidin-3-yl)-1H-pyrazolo[4,3-c]pyridin-1-yl)phenyl)thio)piperidin-1-yl)ethan-1-one]
JAK 1
  IC50: 5.01 to 50.1 nM
JAK 2
  IC50: 5.01 to 50.1 nM
JAK 3
  IC50: 5.01 to 50.1 nM
TYK2
  IC50: > 50.1 nM

## COc1ccc(Cl)cc1-n1nc(N)c2cnc(-c3cnn4cccnc34)cc21 [Example 39, 1-(5-chloro-2-methoxyphenyl)-6-(pyrazolo[1,5-a]pyrimidin-3-yl)-1H-pyrazolo[4,3-c]pyridin-3-amine]
JAK 1
  IC50: ≤ 5.01 nM
JAK 2
  IC50: ≤ 5.01 nM
JAK 3
  IC50: ≤ 5.01 nM
TYK2
  IC50: 5.01 to 50.1 nM

## Cc1nn(-c2cc(S(=O)(=O)CC(N)=O)ccc2OC(F)F)c2cc(-c3cnn4cccnc34)ncc12 [Example 70, 2-((4-(difluoromethoxy)-3-(3-methyl-6-(pyrazolo[1,5-a]pyrimidin-3-yl)-1H-pyrazolo[4,3-c]pyridin-1-yl)phenyl)sulfonyl)acetamide]
JAK 1
  IC50: 5.01 to 50.1 nM
JAK 2
  IC50: ≤ 5.01 nM
JAK 3
  IC50: ≤ 5.01 nM
TYK2
  IC50: > 50.1 nM

## COc1ccc(S(=O)(=O)NCCN2CCOCC2)cc1-n1nc(C)c2cnc(-c3cnn4cccnc34)cc21 [Example 19, 4-methoxy-3-(3-methyl-6-(pyrazolo[1,5-a]pyrimidin-3-yl)-1H-pyrazolo[4,3-c]pyridin-1-yl)-N-(2-morpholinoethyl)benzenesulfonamide]
JAK 1
  IC50: 5.01 to 50.1 nM
JAK 2
  IC50: 5.01 to 50.1 nM
JAK 3
  IC50: > 50.1 nM
TYK2
  IC50: > 50.1 nM

## COc1ccc(C)cc1-n1nc(NCCN(C)C)c2cnc(-c3cnn4cccnc34)cc21 [Example 45, N1-(1-(2-methoxy-5-methylphenyl)-6-(pyrazolo[1,5-a]pyrimidin-3-yl)-1H-pyrazolo[4,3-c]pyridin-3-yl)-N2,N2-dimethylethane-1,2-diamine]
JAK 1
  IC50: 5.01 to 50.1 nM
JAK 2
  IC50: 5.01 to 50.1 nM
JAK 3
  IC50: 5.01 to 50.1 nM
TYK2
  IC50: > 50.1 nM

## COc1ccc(Cl)cc1-n1ncc2c(NC(C)=O)nc(-c3cnn4cccnc34)cc21 [Example 55, N-(1-(5-chloro-2-methoxyphenyl)-6-(pyrazolo[1,5-a]pyrimidin-3-yl)-1H-pyrazolo[4,3-c]pyridin-4-yl)acetamide]
JAK 1
  IC50: 5.01 to 50.1 nM
JAK 2
  IC50: 5.01 to 50.1 nM
JAK 3
  IC50: > 50.1 nM
TYK2
  IC50: > 50.1 nM

## COc1cc(O)c(F)cc1-n1nc(C)c2cnc(-c3cnn4cccnc34)cc21 [Example 58, 2-fluoro-5-methoxy-4-(3-methyl-6-(pyrazolo[1,5-a]pyrimidin-3-yl)-1H-pyrazolo[4,3-c]pyridin-1-yl)phenol]
JAK 1
  IC50: ≤ 5.01 nM
JAK 2
  IC50: ≤ 5.01 nM
JAK 3
  IC50: ≤ 5.01 nM
TYK2
  IC50: 5.01 to 50.1 nM

## Cc1nn(-c2cc(S(=O)(=O)CCO)ccc2OC(F)F)c2cc(-c3cnn4cccnc34)ncc12 [Example 22, 2-((4-(difluoromethoxy)-3-(3-methyl-6-(pyrazolo[1,5-a]pyrimidin-3-yl)-1H-pyrazolo[4,3-c]pyridin-1-yl)phenyl)sulfonyl)ethan-1-ol]
JAK 1
  IC50: 5.01 to 50.1 nM
JAK 2
  IC50: ≤ 5.01 nM
JAK 3
  IC50: ≤ 5.01 nM
TYK2
  IC50: 5.01 to 50.1 nM

## N#CCc1nn(-c2cc(Cl)ccc2OC(F)F)c2cc(-c3cnn4cccnc34)ncc12 [Example 28, 2-(1-(5-chloro-2-(difluoromethoxy)phenyl)-6-(pyrazolo[1,5-a]pyrimidin-3-yl)-1H-pyrazolo[4,3-c]pyridin-3-yl)acetonitrile]
JAK 1
  IC50: ≤ 5.01 nM
JAK 2
  IC50: ≤ 5.01 nM
JAK 3
  IC50: ≤ 5.01 nM
TYK2
  IC50: 5.01 to 50.1 nM

## COc1ccc(Cl)cc1-n1nc(N2CCNCC2)c2cnc(-c3cnn4cccnc34)cc21 [Example 48, 1-(5-chloro-2-methoxyphenyl)-3-(piperazin-1-yl)-6-(pyrazolo[1,5-a]pyrimidin-3-yl)-1H-pyrazolo[4,3-c]pyridine]
JAK 1
  IC50: 5.01 to 50.1 nM
JAK 2
  IC50: 5.01 to 50.1 nM
JAK 3
  IC50: 5.01 to 50.1 nM
TYK2
  IC50: 5.01 to 50.1 nM

## COc1ccc(S(C)(=O)=O)cc1-n1nc(C(=O)NCCCN(C)C)c2cnc(-c3cnn4cccnc34)cc21 [Example 83, N-(3-(dimethylamino)propyl)-1-(2-methoxy-5-(methylsulfonyl)phenyl)-6-(pyrazolo[1,5-a]pyrimidin-3-yl)-1H-pyrazolo[4,3-c]pyridine-3-carboxamide]
JAK 1
  IC50: 5.01 to 50.1 nM
JAK 2
  IC50: 5.01 to 50.1 nM
JAK 3
  IC50: 5.01 to 50.1 nM
TYK2
  IC50: > 50.1 nM

## Cc1nn(-c2cc(SC3CCNCC3)ccc2OC(F)F)c2cc(-c3cnn4cccnc34)ncc12 [Example 74, 1-(2-(difluoromethoxy)-5-(piperidin-4-ylthio)phenyl)-3-methyl-6-(pyrazolo[1,5-a]pyrimidin-3-yl)-1H-pyrazolo[4,3-c]pyridine]
JAK 1
  IC50: > 50.1 nM
JAK 2
  IC50: 5.01 to 50.1 nM
JAK 3
  IC50: 5.01 to 50.1 nM
TYK2
  IC50: > 50.1 nM

## Cc1nn(-c2cc(Cl)ccc2O)c2cc(-c3cnn4cccnc34)ncc12 [Example 12, 4-chloro-2-(3-methyl-6-(pyrazolo[1,5-a]pyrimidin-3-yl)-1H-pyrazolo[4,3-c]pyridin-1-yl)phenol]
JAK 1
  IC50: 5.01 to 50.1 nM
JAK 2
  IC50: ≤ 5.01 nM
JAK 3
  IC50: 5.01 to 50.1 nM
TYK2
  IC50: 5.01 to 50.1 nM
